Laboratory results taken from patent publication US9873693B2 (Sunesis Pharmaceuticals, Inc., priority 2006, dated 2018).
Where two headings read alike, the source gives them in different places.

Key:
phospho-akt (Thr308) = phospho-akt (Thr308) MSD ELISA in PC-3 cells; format: cell-based; details: PC-3 cells; for EC50: 2 hours, no serum; for inhibition at 1 µM / inhibition at 10 µM: read-out: Percent Inhibition of phospho-Akt (308) By MSD ELISA
Summary of the method: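 PC-3 cells plated overnight in 10% FBS medium, then treated with three-fold serial compound dilutions in serum-free medium; DMSO-only wells as high control. Lysates captured on BSA-blocked MSD plates overnight at 4 degrees, detection antibody 1 hr RT, electrochemiluminescence read on MSD reader.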

phosphorylated PDK1 = phosphorylated PDK1 (Homo sapiens (Human), UniProt O15530); experiment: PDK1 kinase assay (coupled PDK1/AKT/FAM-crosstide, IMAP); format: biochemical; details: 0.5 nM phosphorylated PDK1, 24 μM ATP; read-out: Inhibition of phospo-PDK1 in vitro IC50
[1] = Homo sapiens, PC-3, 2 h, read-out: Inhibition of P308 Akt in cells using MSD EC50
[2] = Homo sapiens, PC-3, 2 h, read-out: Reduction of Cellular Levels of Akt p308 By MSD ELISA (EC50 μM)

Chain of phosphorylated PDK1 (O15530 51-360): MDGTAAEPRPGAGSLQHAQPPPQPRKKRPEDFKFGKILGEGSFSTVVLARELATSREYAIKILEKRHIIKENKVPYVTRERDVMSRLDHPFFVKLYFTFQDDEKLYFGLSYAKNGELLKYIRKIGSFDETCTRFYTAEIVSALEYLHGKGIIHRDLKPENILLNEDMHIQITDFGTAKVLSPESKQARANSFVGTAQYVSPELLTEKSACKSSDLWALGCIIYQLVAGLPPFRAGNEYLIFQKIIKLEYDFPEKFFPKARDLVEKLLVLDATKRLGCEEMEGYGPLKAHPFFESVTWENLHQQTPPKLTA

Row | Structure (SMILES) | EC50 (phospho-akt (Thr308); [1]) [µM] | EC50 (phospho-akt (Thr308); [2]) [µM] | IC50 (phosphorylated PDK1) [nM] | inhibition at 1 µM (phospho-akt (Thr308); Homo sapiens) [%] | inhibition at 10 µM (phospho-akt (Thr308); Homo sapiens) [%] | EC50 (phospho-akt (Thr308); read-out: Inhibition of P308 Akt in cells using MSD EC50) [µM]
1 | O=C(Nc1cccc2ccc(-c3c[nH]c4ncccc34)cc12)c1cccn(Cc2ccc(F)c(F)c2)c1=O [Cpd 35] | > 5 | < 1 | < 500 |  |  | 
2 | CNC(=O)c1cc(-c2c[nH]c3ncccc23)cc(CNC(=O)c2cccn(Cc3ccc(F)c(F)c3)c2=O)n1 [Cpd 180] | < 1 |  | < 500 |  |  | 
3 | Nc1ncccc1-c1ccc(CNC(=O)c2cccn(Cc3ccc(F)c(F)c3)c2=O)s1 [Cpd 97] | 1 to 5 |  | < 500 |  |  | 
4 | O=C(O)c1cnc2[nH]cc(-c3cccc(CNC(=O)c4cccn(Cc5ccc(F)c(F)c5)c4=O)c3)c2c1 [Cpd 20] |  | > 5 | < 500 |  |  | 
5 | CC(C)=C1C(=O)Nc2cc(/C=C/CNC(=O)c3cccn(Cc4cc(F)c(F)c(F)c4)c3=O)ccc21 [Cpd 204] | 1 to 5 |  | < 500 |  |  | 
6 | O=C(NCc1cccc(-c2c[nH]c3ncccc23)n1)c1cccn(Cc2ccc(F)c(F)c2)c1=O [Cpd 4] | 1 to 5 |  | < 500 | 25 to 75 | > 75 | 
7 | O=C(Nc1n[nH]c2ccc(-c3c[nH]c4ncccc34)cc12)c1cccn(Cc2ccc(F)c(F)c2)c1=O [Cpd 245] | 1 to 5 |  | < 500 |  |  | 
8 | O=C1Nc2cc(/C=C/CNC(=O)c3cccn(Cc4cc(F)c(F)c(F)c4)c3=O)ccc2/C1=C/c1cnc[nH]1 [Cpd 212] | 1 to 5 |  | < 500 |  |  | 
9 | NC(=O)c1cnc2[nH]cc(-c3ccc(CNC(=O)c4cccn(Cc5ccc(F)c(F)c5)c4=O)s3)c2c1 [Cpd 39] | < 1 | < 1 | < 500 |  |  | 
10 | N#Cc1cnc2[nH]cc(-c3cccc(CNC(=O)c4cccn(Cc5ccc(F)c(F)c5)c4=O)c3)c2c1 [Cpd 244] | < 1 | < 1 | < 500 |  |  | 
11 | O=C1CCc2c(ncnc2-c2cccc(CNC(=O)c3cccn(Cc4ccc(F)c(F)c4)c3=O)c2)N1 [Cpd 240] |  | 1 to 5 | > 10000 | < 25 | < 25 | 
12 | O=C(NC(C(=O)O)c1ccc(-c2c[nH]c3ncccc23)s1)c1cccn(Cc2ccc(F)c(F)c2)c1=O (stereo not drawn) [Cpd 335] |  | > 5 | 500 to 10000 |  |  | 
13 | COCCNC(=O)c1cnc2[nH]cc(-c3cccc(CNC(=O)c4cccn(Cc5ccc(F)c(F)c5)c4=O)c3)c2c1 [Cpd 30] | < 1 | < 1 | < 500 |  |  | 
14 | O=C(NCc1cc(-c2c[nH]c3ncccc23)c[n+]([O-])c1)c1cccn(Cc2ccc(F)c(F)c2)c1=O [Cpd 165] | > 5 |  | < 500 |  |  | 
15 | O=C(NC(COc1ccc2[nH]c(=O)[nH]c2c1)c1ccc(O)cc1)c1cccn(Cc2cc(F)c(F)c(F)c2)c1=O (stereo not drawn) [Cpd 188] | 1 to 5 |  | < 500 |  |  | 
16 | O=C(NCc1cccc(-c2c[nH]c3ncc(-c4ccsc4)cc23)c1)c1cccn(Cc2ccc(F)c(F)c2)c1=O [Cpd 331] | 1 to 5 |  | < 500 |  |  | 
17 | O=C(NCc1noc(-c2c[nH]c3ncccc23)n1)c1cc([N+](=O)[O-])cn(Cc2cc(F)c(F)c(F)c2)c1=O [Cpd 184] | 1 to 5 |  | < 500 |  |  | 
18 | CNC(=O)c1cnc2[nH]cc(-c3cccc(CNC(=O)c4cccn(Cc5ccc(F)c(F)c5)c4=O)c3)c2c1 [Cpd 239] | 1 to 5 | < 1 | < 500 |  |  | 
19 | O=C(NCc1cc(-c2c[nH]c3ncccc23)ccn1)c1cccn(Cc2ccc(F)c(F)c2)c1=O [Cpd 164] | < 1 |  | < 500 |  |  | 
20 | NCc1cnc2[nH]cc(-c3cccc(CNC(=O)c4cccn(Cc5ccc(F)c(F)c5)c4=O)c3)c2c1 [Cpd 37] |  |  | < 500 |  |  | 1 to 5
21 | CC(C)/C=C1/C(=O)Nc2cc(/C=C/CNC(=O)c3cccn(Cc4cc(F)c(F)c(F)c4)c3=O)ccc21 [Cpd 205] | > 5 |  | < 500 |  |  | 
